Activity calls are given as the source filed them. The calls are words filed in the database; no cut-off is given here.
Assays:
[1] = MRT in ICR mouse at 10 mg/kg, po by LC-MS/MS analysis; format: ADME, organism-based; conditions: in vivo
[2] = Toxicity in BALB/c mouse xenografted with human MIA PaCa-2 cells harboring KRAS G12C mutant assessed as change in body weight at 50 mg/kg, po once a day measured for 16 days; format: organism-based; conditions: in vivo, 384 h, time 16 day
SOS1-KRAS = SOS1-KRAS (Homo sapiens, UniProt Q07889); experiment: Inhibition of human recombinant SOS1 (residue 564-1049)/KRAS G12C mutant protein-protein interaction at incubated for 25 degC for 60 mins by homogeneous time-resolved fluorescence (HTRF) method
Chain of SOS1-KRAS (Q07889 whole entry, looked up, stated change not applied): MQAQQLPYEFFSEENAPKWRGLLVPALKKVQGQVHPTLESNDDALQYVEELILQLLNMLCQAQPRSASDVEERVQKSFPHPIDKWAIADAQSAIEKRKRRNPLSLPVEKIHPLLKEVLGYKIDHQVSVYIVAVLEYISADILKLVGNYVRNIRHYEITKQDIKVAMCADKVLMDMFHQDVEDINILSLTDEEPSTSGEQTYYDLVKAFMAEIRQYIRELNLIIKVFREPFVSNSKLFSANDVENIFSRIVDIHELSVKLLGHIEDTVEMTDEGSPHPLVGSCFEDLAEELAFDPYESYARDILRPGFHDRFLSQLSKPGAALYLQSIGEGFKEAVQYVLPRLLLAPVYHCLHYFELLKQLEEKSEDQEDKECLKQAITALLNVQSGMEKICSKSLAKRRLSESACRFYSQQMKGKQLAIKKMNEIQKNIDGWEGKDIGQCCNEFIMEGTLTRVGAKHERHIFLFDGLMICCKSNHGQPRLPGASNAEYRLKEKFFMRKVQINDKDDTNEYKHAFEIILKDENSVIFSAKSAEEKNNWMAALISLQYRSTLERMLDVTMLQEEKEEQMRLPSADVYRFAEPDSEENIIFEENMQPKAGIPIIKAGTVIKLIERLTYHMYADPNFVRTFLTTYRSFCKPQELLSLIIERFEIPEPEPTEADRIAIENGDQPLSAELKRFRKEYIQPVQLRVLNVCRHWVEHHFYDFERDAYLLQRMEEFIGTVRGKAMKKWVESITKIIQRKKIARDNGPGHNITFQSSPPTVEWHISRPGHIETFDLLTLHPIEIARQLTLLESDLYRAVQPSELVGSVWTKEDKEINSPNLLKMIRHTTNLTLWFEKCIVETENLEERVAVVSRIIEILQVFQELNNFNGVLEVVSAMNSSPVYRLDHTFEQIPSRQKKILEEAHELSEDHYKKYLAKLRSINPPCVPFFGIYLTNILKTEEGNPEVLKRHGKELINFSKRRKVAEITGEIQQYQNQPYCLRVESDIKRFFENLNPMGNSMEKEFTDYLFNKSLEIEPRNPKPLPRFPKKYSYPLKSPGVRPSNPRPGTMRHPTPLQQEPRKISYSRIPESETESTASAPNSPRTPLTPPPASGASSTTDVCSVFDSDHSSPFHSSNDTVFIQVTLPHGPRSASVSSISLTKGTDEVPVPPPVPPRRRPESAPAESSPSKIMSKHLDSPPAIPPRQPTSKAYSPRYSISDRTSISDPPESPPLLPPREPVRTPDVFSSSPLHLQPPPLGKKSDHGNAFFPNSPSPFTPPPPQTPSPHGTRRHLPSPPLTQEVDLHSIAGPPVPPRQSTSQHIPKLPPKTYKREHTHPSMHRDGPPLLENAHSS

[3] = Elimination rate constant in ICR mouse at 20 mg/kg, po by LC-MS/MS analysis; format: ADME, organism-based; conditions: in vivo; for k el: ICR
NCI-H358 = experiment: Antiproliferative activity against human NCI-H358 cells harboring SOS1/KRAS G12C mutant measured after 24 hrs by AlamarBlue based 3-D proliferation assay; format: functional, cell-based
[4] = AUC in ICR mouse at 20 mg/kg, po by LC-MS/MS analysis; format: ADME, organism-based; design: dose 20 mg/kg, route po; conditions: in vivo
[5] = Tmax in ICR mouse at 10 mg/kg, po by LC-MS/MS analysis; format: ADME, organism-based; conditions: in vivo
[6] = AUC in ICR mouse at 10 mg/kg, po by LC-MS/MS analysis; format: ADME, organism-based; design: dose 10 mg/kg, route po; conditions: in vivo
[7] = Half life in ICR mouse at 10 mg/kg, po by LC-MS/MS analysis; format: ADME, organism-based; conditions: in vivo
[8] = Tmax in ICR mouse at 20 mg/kg, po by LC-MS/MS analysis; format: ADME, organism-based; conditions: in vivo
[9] = MRT in ICR mouse at 20 mg/kg, po by LC-MS/MS analysis; format: ADME, organism-based; conditions: in vivo
[10] = Cmax in ICR mouse at 10 mg/kg, po by LC-MS/MS analysis; format: ADME, organism-based; design: dose 10 mg/kg, route po; conditions: in vivo
MIA PaCa-2 [11] = experiment: In vivo antitumor activity against human MIA PaCa-2 cells harboring KRAS G12C mutant xenografted in BALB/c mouse assessed as tumor growth inhibition at 50 mg/kg, po once a day measured for 16 days relative to control; format: functional; conditions: MIA PaCa-2, 384 h, time 16 day, read-out: TGI
[12] = Half life in ICR mouse at 20 mg/kg, po by LC-MS/MS analysis; format: ADME, organism-based; conditions: in vivo; for half-life: ICR
[13] = Elimination rate constant in ICR mouse at 10 mg/kg, po by LC-MS/MS analysis; format: ADME, organism-based; conditions: in vivo
[14] = Inhibition of SOS1/KRAS G13D mutant protein-protein interaction in human DLD-1 cells assessed as ERK1/2 phosphorylation measured after 1 hr by homogeneous time-resolved fluorescence (HTRF) method; format: cell-based; conditions: DLD-1, 1 h
[15] = Cmax in ICR mouse at 20 mg/kg, po by LC-MS/MS analysis; format: ADME, organism-based; design: dose 20 mg/kg, route po; conditions: in vivo
[16] = Metabolic stability in mouse liver microsomes assessed as half life in presence of NADPH by LC-MS/MS analysis; format: ADME, Microsome
[17] = Metabolic stability in rat liver microsomes assessed as intrinsic clearance in presence of NADPH measured upto 60 mins by LC-MS/MS analysis; format: ADME, Microsome; conditions: read-out: CLH
[18] = Metabolic stability in mouse liver microsomes assessed as intrinsic clearance in presence of NADPH measured upto 60 mins by LC-MS/MS analysis; format: ADME, Microsome; conditions: read-out: CLH
MIA PaCa-2 [19] = experiment: In vivo antitumor activity against human MIA PaCa-2 cells harboring KRAS G12C mutant xenografted in BALB/c mouse assessed as reduction in tumor volume at 50 mg/kg, po once a day measured for 16 days relative to control; format: functional; design: scale not given: the % may be the effect or the level left; conditions: time 16 day
[20] = Metabolic stability in rat liver microsomes assessed as half life in presence of NADPH by LC-MS/MS analysis; format: ADME, Microsome
[21] = Toxicity in BALB/c mouse xenografted with human MIA PaCa-2 cells harboring KRAS G12C mutant assessed as mortality at 50 mg/kg, po once a day measured for 16 days; format: organism-based; conditions: in vivo, 384 h, time 16 day
MIA PaCa-2 [22] = experiment: In vivo antitumor activity against human MIA PaCa-2 cells harboring KRAS G12C mutant xenografted in BALB/c mouse assessed as reduction in tumor volume at 50 mg/kg, po once a day measured for 16 days relative to BI-3406; format: functional; design: scale not given: the % may be the effect or the level left; conditions: time 16 day
MIA PaCa-2 [23] = experiment: Antiproliferative activity against human MIA PaCa-2 cells assessed as cell viability measured after 72 hrs by MTT assay; format: functional, cell-based; conditions: MIA PaCa-2, 72 h

SMILES | MRT [1] | Activity [2] | IC50 (SOS1-KRAS) | k el [3] | Activity (NCI-H358) | AUC [4] | Tmax [5] | AUC [6] | half-life [7] | Tmax [8] | MRT [9] | Cmax [10] | half-life [12] | k el [13] | IC50 [14] | Cmax [15] | half-life [16] | CLint scaled [17] | Activity (MIA PaCa-2 [19]) | Activity [21] | further results
CC(=O)N1CCN2c3cc4c(N[C@H](C)c5cccc(C(F)F)c5F)nc(C)nc4cc3OC[C@H]2C1 | 1.9 h | Non-Toxic | 6.3 nM | 0.000119 s⁻¹ | Active | 601 ng·h/mL | 0.33 h | 148 ng·h/mL | 1.87 h | 0.25 h | 1.93 h | 63.4 ng/mL | 2.14 h | 0.000103 s⁻¹ | 2.4 nM | 270 ng/mL | – | – | – | – | inhibition in vivo at 50 mg/kg (MIA PaCa-2 [11]): 42%
COc1cc2nc(C)nc(N[C@H](C)c3cc(N)cc(C(F)(F)F)c3)c2cc1O[C@H]1CCOC1 | 1.7 h | Non-Toxic | – | 5.83e-05 s⁻¹ | – | 4680 ng·h/mL | 0.5 h | 550 ng·h/mL | 1.3 h | 0.9 h | 2.98 h | 241 ng/mL | 4.48 h | 0.000147 s⁻¹ | 30.7 nM | 1050 ng/mL | 0.18 h | 69.5 mL/min/kg | 42% | Non-Toxic | CLint scaled [18]: 504 mL/min/kg; half-life [20]: 0.602 h
Cc1nc(N[C@H](C)c2cccc(C(F)F)c2F)c2cc3c(cc2n1)OC[C@H]1CN(C(=O)[C@H]2CCOC2)CCN31 | – | Non-Toxic | – | – | – | 9900 ng·h/mL | – | – | – | 3.67 h | 4.19 h | – | – | – | 5 nM | 1550 ng/mL | 0.437 h | 37.2 mL/min/kg | 49% | Non-Toxic | Kel ([3]; po, 20 mg/kg): 0.25 h⁻¹; Activity (MIA PaCa-2 [22]): 71%; IC50 (MIA PaCa-2 [23]): 178 nM; t1/2 ([12]; po, 20 mg/kg): 11.4 h; CLint scaled [18]: 209 mL/min/kg; half-life [20]: 1.12 h
CC(=O)N1CCN2c3cc4c(N[C@H](C)c5cc(N)cc(C(F)(F)F)c5)nc(C)nc4cc3OC[C@H]2C1 | 10.1 h | – | 4.3 nM | – | Active | – | 1 h | 53.5 ng·h/mL | 1.49 h | – | – | 8.89 ng/mL | – | 0.000142 s⁻¹ | 4.7 nM | – | – | – | – | – | –
Cc1nc(N[C@H](C)c2cccc(C(F)F)c2F)c2cc3c(cc2n1)OC[C@H]1CN(C(=O)[C@@H]2C[C@H]2F)CCN31 | – | Non-Toxic | – | 2.78e-05 s⁻¹ | – | 4010 ng·h/mL | – | – | – | 5.67 h | 4.08 h | – | 6.67 h | – | 6 nM | 651 ng/mL | – | – | 49% | Non-Toxic | –
CC(=O)N1CCN2c3cc4c(N[C@H](C)c5cccc(C(F)(F)CO)c5F)nc(C)nc4cc3OC[C@H]2C1 | – | – | 2.7 nM | – | Active | – | – | – | – | – | – | – | – | – | 1.4 nM | – | – | – | – | – | –
